Test results reported in patent US10711041B2, “Lyophilisate containing a cyclic peptide of formula X1-[sequence]-X2” (priority 2013, dated 2020).

Tests used:
[1] = Concentration in lung tissue and blood after aerosol inhalation, rat; assay type: in vivo; conditions: after inhalation of aerosol
Protocol: The proof of a cyclic peptide of amino acid sequence SEQ ID NO:1 to SEQ ID NO:6 may take place in lung tissue of rats. For that exemplarily an aerosol was produced with a nebulizer from an aqueous solution of the cyclic peptide of amino acid sequence SEQ ID NO:1. The aerosol was inhaled by the experimental animal (72 mg/kg body weight). After termination of aerosol inhalation, the lung tissue, as well as the blood of the experimental animal was examined. By means of reverse HPLC/MS the concentration of the cyclic peptide of amino acid sequence SEQ ID NO:1 was determined Exemplarily, the cyclic peptide of amino acid sequence SEQ ID NO:1 could be detected in the lung tissue in a concentration of 1.2 μm/g after inhalation of 72 mg/kg body weight in sum. In contrast to that the cyclic peptide of amino acid sequence SEQ ID NO:1 could not be detected in the blood up to a detection limit of 0.1 μm/ml.

[2] = target: T1, amilorid-sensitive Sodium Ion Channel (ENaC) (Homo sapiens, UniProt P37088); test: Biological activity of condensed aerosol by Patch Clamp in A549 cells; assay type: cell-based; conditions: Mesh-Type nebulizer, aerosol condensed in cooling trap
T1 construct: Macroscopic Sodium Ion Currents were derived from human lung epithelian cells A549; endogenous in cells; host or cells: A549 human lung epithelial cells
T1 sequence (P37088 1-669): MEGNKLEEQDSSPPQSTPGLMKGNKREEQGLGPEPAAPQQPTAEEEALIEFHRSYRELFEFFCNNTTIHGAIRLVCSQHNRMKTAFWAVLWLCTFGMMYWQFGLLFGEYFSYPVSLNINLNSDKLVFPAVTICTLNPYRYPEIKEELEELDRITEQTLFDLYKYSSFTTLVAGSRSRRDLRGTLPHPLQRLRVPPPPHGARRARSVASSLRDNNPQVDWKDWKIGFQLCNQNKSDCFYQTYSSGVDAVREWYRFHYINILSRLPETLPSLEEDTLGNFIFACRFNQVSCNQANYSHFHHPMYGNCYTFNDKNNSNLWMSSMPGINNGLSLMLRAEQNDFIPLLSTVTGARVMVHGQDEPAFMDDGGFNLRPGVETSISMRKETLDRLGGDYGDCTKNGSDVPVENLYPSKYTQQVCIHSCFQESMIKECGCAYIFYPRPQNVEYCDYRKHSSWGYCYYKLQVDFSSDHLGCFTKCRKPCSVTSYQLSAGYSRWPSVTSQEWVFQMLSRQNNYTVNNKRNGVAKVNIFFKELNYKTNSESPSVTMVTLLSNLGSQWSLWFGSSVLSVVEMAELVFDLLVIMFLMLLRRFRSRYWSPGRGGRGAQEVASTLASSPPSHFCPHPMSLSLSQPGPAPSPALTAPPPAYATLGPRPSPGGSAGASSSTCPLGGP
T1 sequence (P51168 1-640 partner): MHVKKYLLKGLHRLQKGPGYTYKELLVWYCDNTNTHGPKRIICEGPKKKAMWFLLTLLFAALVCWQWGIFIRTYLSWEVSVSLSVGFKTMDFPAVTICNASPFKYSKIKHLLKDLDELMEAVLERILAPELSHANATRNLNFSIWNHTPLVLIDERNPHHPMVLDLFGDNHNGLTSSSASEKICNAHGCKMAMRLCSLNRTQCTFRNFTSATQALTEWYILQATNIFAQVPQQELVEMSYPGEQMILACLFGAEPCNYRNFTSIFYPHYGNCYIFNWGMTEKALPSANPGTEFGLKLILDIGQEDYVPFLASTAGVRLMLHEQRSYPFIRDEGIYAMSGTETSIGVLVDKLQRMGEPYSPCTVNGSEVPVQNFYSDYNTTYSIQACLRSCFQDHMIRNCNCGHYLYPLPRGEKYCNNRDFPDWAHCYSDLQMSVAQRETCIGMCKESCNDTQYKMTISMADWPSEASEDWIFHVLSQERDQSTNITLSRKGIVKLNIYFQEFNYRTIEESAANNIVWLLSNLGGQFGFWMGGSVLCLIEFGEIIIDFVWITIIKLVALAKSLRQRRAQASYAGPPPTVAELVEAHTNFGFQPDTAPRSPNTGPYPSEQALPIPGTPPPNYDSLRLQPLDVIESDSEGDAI
T1 sequence (P51170 1-649 partner): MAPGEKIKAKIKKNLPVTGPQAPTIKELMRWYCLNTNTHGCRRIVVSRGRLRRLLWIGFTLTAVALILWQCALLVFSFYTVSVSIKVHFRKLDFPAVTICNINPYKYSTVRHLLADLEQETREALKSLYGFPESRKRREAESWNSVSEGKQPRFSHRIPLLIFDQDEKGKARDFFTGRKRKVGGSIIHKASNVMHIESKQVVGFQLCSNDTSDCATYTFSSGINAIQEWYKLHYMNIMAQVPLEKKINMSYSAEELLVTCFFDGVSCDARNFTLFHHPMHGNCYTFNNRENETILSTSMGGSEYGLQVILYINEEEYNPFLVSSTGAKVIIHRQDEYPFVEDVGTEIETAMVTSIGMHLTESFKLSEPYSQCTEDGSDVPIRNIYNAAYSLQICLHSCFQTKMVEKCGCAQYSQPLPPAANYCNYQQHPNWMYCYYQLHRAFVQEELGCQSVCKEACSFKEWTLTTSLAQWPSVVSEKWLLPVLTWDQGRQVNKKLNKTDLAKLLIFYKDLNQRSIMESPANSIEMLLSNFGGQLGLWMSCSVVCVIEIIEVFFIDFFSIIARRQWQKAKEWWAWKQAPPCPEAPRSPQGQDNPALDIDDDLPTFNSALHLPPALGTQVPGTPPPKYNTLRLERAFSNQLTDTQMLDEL
Protocol: Since proteins and peptides occasionally may be rather unstable, it was investigated, whether the cyclic peptides of amino acid sequence SEQ ID NO:1 to SEQ ID NO:6 in dissolved preparation during conversion into an aerosol remain stable. For that the cyclic peptides were dissolved in water as described in example 4. After filling into the storage container of a nebulizer the aqueous solution of the cyclic peptides were converted into an aerosol. For that a “Mesh-Type” nebulizer was used. The biological activity of the collected aerosols was determined by means of the Patch Clamp method. Thereby macroscopic currents of A549 cells were deduced in the “whole cell” configuration of the “Patch-clamp” technique, as described under “Electrophysiological Investigations of the Amilorid-sensitive Sodium Ion Channel (ENaC)”.

[3] = Breathing simulator, amount of aerosol available for inhalation; assay type: physicochemical; conditions: nebulizers Type A and Type B
Protocol: It is ramblingly known, that in practice from a generated aerosol only a part is available for the patient. Thus, for determining the amount of aerosol which is available for a user, trials with a breathing simulator were carried out. For investigating the particle size and for the implementation of the breathing simulation an aerosol from an aqueous solution of the cyclic peptide of amino acid sequence SEQ ID NO:1 was used. For generating aerosol different nebulizer types were used. The nebulizers A and B were so called “Mesh-Type nebulizers”.

C[C@@H]1NC(=O)CNC(=O)[C@H](CCC(=O)O)NC(=O)[C@@H]2CCCN2C(=O)[C@H]([C@@H](C)O)NC(=O)[C@H](CCC(=O)O)NC(=O)[C@H](CCCNC(=N)N)NC(=O)[C@H](CCC(N)=O)NC(=O)CNC(=O)[C@@H](N)CSSC[C@@H](C(=O)O)NC(=O)[C@H](Cc2ccc(O)cc2)NC(=O)[C@H](Cc2c[nH]c3ccccc23)NC(=O)[C@@H]2CCCN2C(=O)[C@H](CCCCN)NC(=O)[C@H](C)NC(=O)[C@H](CCC(=O)O)NC1=O [SEQ ID NO: 1]
concentration in lung tissue ([1]; 72 mg/kg body weight in sum): 1.2 μm/g
concentration in blood ([1]; 72 mg/kg, detection limit): < 0.1 μm/ml
biological stability during transformation into an aerosol [2]: keeps its biological, as well as its chemical stability
part of the aerosol available for inhalation (inhalation filter) [3]: predominant part
